The assay has as its system BDF1 mice, M5076 sarcoma s.c., survival/tumor T/C. The assay is described as follows: NCI In Vivo Anticancer Drug Screen. Data for tumor model Sarcoma M5076 (subcutaneous) in B6D2F1 (BDF1) mice. On the procedure: The antitumor activity of compounds was measured in mice bearing transplantable tumors. Survival or tumor size were measured and the results are expressed as the measurement made in the treated group (T) divided by the measurement made in the vehicle treated control group (C). The tumor model used in this assay is Sarcoma M5076 (subcutaneous) in B6D2F1 (BDF1) mice

[1] abbreviates: endpoint: mean tumor weight, dose: 100.0 mg/kg/injection, schedule: Q02DX011 (ip), vehicle: Klucel (hydroxypropylcellulose) (HPC), higher = larger tumour.
The mark [2] stands for this setting: endpoint: median tumor weight (est.), dose: 100.0 mg/kg/injection, schedule: Q02DX011 (ip), vehicle: Klucel (hydroxypropylcellulose) (HPC), higher = larger tumour.

For 8 compounds, T/C results are on record in PubChem BioAssay AID288 (DTP/NCI, 2004).

The structures appear in SMILES notation. Several values for one entry are separate records, joined by “and”; a condition that tells them apart may be missing. Identical values can stand only once. Results filed as inconclusive are left out.

Take `CC(=O)O[C@H]1C(=O)[C@@]2(C)[C@H]([C@H](OC(=O)c3ccccc3)[C@]3(O)C[C@H](OC(=O)[C@H](O)[C@@H](NC(=O)c4ccccc4)c4ccccc4)C(C)=C1C3(C)C)[C@]1(OC(C)=O)CO[C@@H]1C[C@@H]2O`: the T/C was 103 % of control (endpoint: mean tumor weight, dose: 10.0 mg/kg/injection, schedule: Q02DX011 (ip), vehicle: Klucel (hydroxypropylcellulose) (HPC), higher = larger tumour); 78 % of control (endpoint: mean tumor weight, dose: 20.0 mg/kg/injection, schedule: Q02DX011 (ip), vehicle: Klucel (hydroxypropylcellulose) (HPC), higher = larger tumour); 57 % of control (endpoint: mean tumor weight, dose: 40.0 mg/kg/injection, schedule: Q02DX011 (ip), vehicle: Klucel (hydroxypropylcellulose) (HPC), higher = larger tumour); 108 % of control (endpoint: median survival time, dose: 1.32 mg/kg/injection, schedule: Q02DX011 (ip), vehicle: Klucel (hydroxypropylcellulose) (HPC), higher = longer survival); 115 % of control (endpoint: median survival time, dose: 1.32 mg/kg/injection, schedule: Q02DX011 (ip), vehicle: other, higher = longer survival); 111 % of control (endpoint: median survival time, dose: 1.98 mg/kg/injection, schedule: Q02DX011 (ip), vehicle: Klucel (hydroxypropylcellulose) (HPC), higher = longer survival). Besides, the T/C (endpoint: median survival time, dose: 1.98 mg/kg/injection, schedule: Q02DX011 (ip), vehicle: other, higher = longer survival) was 109 % of control; the T/C (endpoint: median survival time, dose: 2.5 mg/kg/injection, schedule: Q04DX003 (ip), vehicle: Klucel (hydroxypropylcellulose) (HPC), higher = longer survival) is 85 % of control; the T/C (endpoint: median survival time, dose: 2.96 mg/kg/injection, schedule: Q02DX011 (ip), vehicle: Klucel (hydroxypropylcellulose) (HPC), higher = longer survival) is 103 % of control; the T/C (endpoint: median survival time, dose: 4.44 mg/kg/injection, schedule: Q02DX011 (ip), vehicle: Klucel (hydroxypropylcellulose) (HPC), higher = longer survival) was 111 % of control; the T/C (endpoint: median survival time, dose: 4.44 mg/kg/injection, schedule: Q02DX011 (ip), vehicle: other, higher = longer survival) is 115 % of control; the T/C (endpoint: median survival time, dose: 5.0 mg/kg/injection, schedule: Q04DX003 (ip), vehicle: Klucel (hydroxypropylcellulose) (HPC), higher = longer survival) was 103 % of control. Moreover, the T/C runs as follows: (endpoint: median survival time, dose: 6.67 mg/kg/injection, schedule: Q02DX011 (ip), vehicle: Klucel (hydroxypropylcellulose) (HPC), higher = longer survival) 119 % of control; (endpoint: median survival time, dose: 6.67 mg/kg/injection, schedule: Q02DX011 (ip), vehicle: other, higher = longer survival) 112 % of control; (endpoint: median survival time, dose: 10.0 mg/kg/injection, schedule: Q02DX011 (ip), vehicle: Klucel (hydroxypropylcellulose) (HPC), higher = longer survival) 110 % of control; (endpoint: median survival time, dose: 10.0 mg/kg/injection, schedule: Q02DX011 (ip), vehicle: other, higher = longer survival) 106 % of control; (endpoint: median survival time, dose: 10.0 mg/kg/injection, schedule: Q04DX003 (ip), vehicle: Klucel (hydroxypropylcellulose) (HPC), higher = longer survival) 109 % of control; (endpoint: median survival time, dose: 15.0 mg/kg/injection, schedule: Q02DX011 (ip), vehicle: Klucel (hydroxypropylcellulose) (HPC), higher = longer survival) 91 % of control. Besides, the T/C was 107 % of control (endpoint: median survival time, dose: 15.0 mg/kg/injection, schedule: Q02DX011 (ip), vehicle: other, higher = longer survival); 108 % of control (endpoint: median survival time, dose: 22.5 mg/kg/injection, schedule: Q02DX011 (ip), vehicle: other, higher = longer survival); 83 % of control (endpoint: median tumor weight (est.), dose: 1.32 mg/kg/injection, schedule: Q02DX011 (ip), vehicle: Klucel (hydroxypropylcellulose) (HPC), higher = larger tumour); 106 % of control (endpoint: median tumor weight (est.), dose: 1.32 mg/kg/injection, schedule: Q02DX011 (ip), vehicle: other, higher = larger tumour); 73 % of control (endpoint: median tumor weight (est.), dose: 1.98 mg/kg/injection, schedule: Q02DX011 (ip), vehicle: Klucel (hydroxypropylcellulose) (HPC), higher = larger tumour); 96 % of control (endpoint: median tumor weight (est.), dose: 1.98 mg/kg/injection, schedule: Q02DX011 (ip), vehicle: other, higher = larger tumour). For the same compound, the T/C runs as follows: (endpoint: median tumor weight (est.), dose: 2.96 mg/kg/injection, schedule: Q02DX011 (ip), vehicle: Klucel (hydroxypropylcellulose) (HPC), higher = larger tumour) 87 % of control; (endpoint: median tumor weight (est.), dose: 2.96 mg/kg/injection, schedule: Q02DX011 (ip), vehicle: other, higher = larger tumour) 87 % of control; (endpoint: median tumor weight (est.), dose: 4.44 mg/kg/injection, schedule: Q02DX011 (ip), vehicle: Klucel (hydroxypropylcellulose) (HPC), higher = larger tumour) 62 % of control; (endpoint: median tumor weight (est.), dose: 4.44 mg/kg/injection, schedule: Q02DX011 (ip), vehicle: other, higher = larger tumour) 76 % of control; (endpoint: median tumor weight (est.), dose: 6.67 mg/kg/injection, schedule: Q02DX011 (ip), vehicle: Klucel (hydroxypropylcellulose) (HPC), higher = larger tumour) 58 % of control; (endpoint: median tumor weight (est.), dose: 6.67 mg/kg/injection, schedule: Q02DX011 (ip), vehicle: other, higher = larger tumour) 79 % of control. For the same compound, the T/C runs as follows: (endpoint: median tumor weight (est.), dose: 10.0 mg/kg/injection, schedule: Q02DX011 (ip), vehicle: other, higher = larger tumour) 63 % of control; (endpoint: median tumor weight (est.), dose: 15.0 mg/kg/injection, schedule: Q02DX011 (ip), vehicle: Klucel (hydroxypropylcellulose) (HPC), higher = larger tumour) 73 % of control; (endpoint: median tumor weight (est.), dose: 15.0 mg/kg/injection, schedule: Q02DX011 (ip), vehicle: other, higher = larger tumour) 59 % of control; (endpoint: median tumor weight (est.), dose: 20.0 mg/kg/injection, schedule: Q02DX011 (ip), vehicle: Klucel (hydroxypropylcellulose) (HPC), higher = larger tumour) 63 % of control; (endpoint: median tumor weight (est.), dose: 22.5 mg/kg/injection, schedule: Q02DX011 (ip), vehicle: other, higher = larger tumour) 38 % of control; (endpoint: median tumor weight (est.), dose: 40.0 mg/kg/injection, schedule: Q02DX011 (ip), vehicle: Klucel (hydroxypropylcellulose) (HPC), higher = larger tumour) 31 % of control.
As to `COC1C(O)C(C)OC(OC2C(Oc3cccc4c(O)c5c(=O)oc6ccc(C)c7c(=O)oc(c34)c5c67)OC(C)C(O)C2O)C1O` (stereo not given), the T/C reads like this: (endpoint: mean tumor weight, dose: 25.0 mg/kg/injection, schedule: Q02DX011 (ip), vehicle: Klucel (hydroxypropylcellulose) (HPC), higher = larger tumour) 83 % of control; (endpoint: mean tumor weight, dose: 50.0 mg/kg/injection, schedule: Q02DX011 (ip), vehicle: Klucel (hydroxypropylcellulose) (HPC), higher = larger tumour) 96 % of control; under setting [1], 57 % of control; (endpoint: median tumor weight (est.), dose: 50.0 mg/kg/injection, schedule: Q02DX011 (ip), vehicle: Klucel (hydroxypropylcellulose) (HPC), higher = larger tumour) 82 % of control; under setting [2], 48 % of control.
As for `CC(=O)O[C@]1(C(C)=O)CC[C@H]2[C@@H]3C[C@H](C)C4=CC(=O)CC[C@]4(C)[C@H]3CC[C@@]21C`, the T/C under setting [1] was 44 % of control; the T/C (endpoint: mean tumor weight, dose: 200.0 mg/kg/injection, schedule: Q02DX011 (ip), vehicle: Klucel (hydroxypropylcellulose) (HPC), higher = larger tumour) was 122 % of control; the T/C (endpoint: mean tumor weight, dose: 400.0 mg/kg/injection, schedule: Q02DX011 (ip), vehicle: Klucel (hydroxypropylcellulose) (HPC), higher = larger tumour) is 74 % of control; the T/C under setting [2] was 49 % of control; the T/C (endpoint: median tumor weight (est.), dose: 200.0 mg/kg/injection, schedule: Q02DX011 (ip), vehicle: Klucel (hydroxypropylcellulose) (HPC), higher = larger tumour) is 86 % of control; the T/C (endpoint: median tumor weight (est.), dose: 400.0 mg/kg/injection, schedule: Q02DX011 (ip), vehicle: Klucel (hydroxypropylcellulose) (HPC), higher = larger tumour) was 59 % of control.
Take `O=[N+]([O-])c1ccc(CSc2ncnc3c2ncn3C2OC(COP(=O)(O)O)C(O)C2O)cc1` (stereo not given): the T/C (endpoint: median survival time, dose: 64.8 mg/kg/injection, schedule: Q01DX005 (ip), vehicle: saline, higher = longer survival) was 115 % of control and 118 % of control.
In the case of `O=C(O)CC(NC(=O)CP(=O)(O)O)C(=O)O` (stereo not given), the T/C (endpoint: median survival time, dose: 38.9 mg/kg/injection, schedule: Q01DX004 (ip), vehicle: saline, higher = longer survival) was 109 % of control; the T/C (endpoint: median survival time, dose: 64.8 mg/kg/injection, schedule: Q01DX004 (ip), vehicle: saline, higher = longer survival) is 114 % of control; the T/C (endpoint: median survival time, dose: 75.0 mg/kg/injection, schedule: Q02DX010 (ip), vehicle: saline, higher = longer survival) was 176 % of control; the T/C (endpoint: median survival time, dose: 150.0 mg/kg/injection, schedule: Q02DX010 (ip), vehicle: saline, higher = longer survival) was 169 % of control; the T/C (endpoint: median survival time, dose: 180.0 mg/kg/injection, schedule: Q01DX004 (ip), vehicle: saline, higher = longer survival) is 124 % of control; the T/C (endpoint: median survival time, dose: 300.0 mg/kg/injection, schedule: Q02DX010 (ip), vehicle: saline, higher = longer survival) was 181 % of control.
For `Nc1nc(N)c2c(ccc3nccc32)[nH]1`, the T/C was 86 % of control (endpoint: median survival time, dose: 12.5 mg/kg/injection, schedule: Q01DX009 (ip), vehicle: saline with Tween-80, higher = longer survival); 92 % of control (endpoint: median survival time, dose: 25.0 mg/kg/injection, schedule: Q01DX009 (ip), vehicle: saline with Tween-80, higher = longer survival); 80 % of control (endpoint: median tumor weight (est.), dose: 12.5 mg/kg/injection, schedule: Q01DX009 (ip), vehicle: saline with Tween-80, higher = larger tumour); 62 % of control (endpoint: median tumor weight (est.), dose: 25.0 mg/kg/injection, schedule: Q01DX009 (ip), vehicle: saline with Tween-80, higher = larger tumour).
Take `COC(=O)[C@@]12OC[C@]34[C@H]([C@@H](O)[C@@H]1O)[C@@]1(C)CC(=O)C(O)=C(C)[C@@H]1C[C@H]3OC(=O)[C@H](OC(=O)/C=C(\C)C(C)C)[C@@H]24`: the T/C (endpoint: mean tumor weight, dose: 0.5 mg/kg/injection, schedule: Q02DX011 (ip), vehicle: saline with Tween-80, higher = larger tumour) was 114 % of control; the T/C (endpoint: mean tumor weight, dose: 1.0 mg/kg/injection, schedule: Q02DX011 (ip), vehicle: saline with Tween-80, higher = larger tumour) is 94 % of control; the T/C (endpoint: mean tumor weight, dose: 2.0 mg/kg/injection, schedule: Q02DX011 (ip), vehicle: saline with Tween-80, higher = larger tumour) is 26 % of control.
As to `CN(C)/N=N/c1nc[nH]c1C(N)=O`, the T/C is, setting by setting: (endpoint: median survival time, dose: 13.5 mg/kg/injection, schedule: Q04DX006 (ip), vehicle: saline with Tween-80, higher = longer survival) 96 % of control; (endpoint: median survival time, dose: 27.0 mg/kg/injection, schedule: Q02DX030 (ip), vehicle: saline with Tween-80, higher = longer survival) 177 % of control; (endpoint: median survival time, dose: 27.0 mg/kg/injection, schedule: Q04DX006 (ip), vehicle: saline with Tween-80, higher = longer survival) 122 % of control; (endpoint: median survival time, dose: 54.0 mg/kg/injection, schedule: Q02DX030 (ip), vehicle: saline with Tween-80, higher = longer survival) 191 % of control.
